{"source": "ChEMBL document CHEMBL3046287", "about": "“Azoxystrobin resistance of French Mycosphaerella graminicola strains assessed by four in vitro bioassays and by screening of G143A substitution” (Crop Prot, 2010)", "format_in_all_cases": "functional, organism-based", "key": {"[1]": {"tested_on": "Zymoseptoria tritici", "experiment": "Antifungal activity against azoxystrobin-sensitive Zymoseptoria tritici T0209 carrying cytochrome-b G143 allele assessed as inhibition of spore germination after 2 days at 18 degC by spotting on PDA medium assay", "details": "T0209, 48 h"}, "[2]": {"tested_on": "Zymoseptoria tritici", "experiment": "Antifungal activity against azoxystrobin-sensitive Zymoseptoria tritici T0473 carrying cytochrome-b G143 allele assessed as fungal growth inhibition after 6 days at 20 degC by microplate without alamar blue assay", "details": "T0473, 144 h"}, "[3]": {"tested_on": "Zymoseptoria tritici", "experiment": "Antifungal activity against azoxystrobin-sensitive Zymoseptoria tritici IPO94269 carrying cytochrome-b G143 allele assessed as inhibition of spore germination after 2 days at 18 degC by spotting on PDA medium assay", "details": "IPO94269, 48 h"}, "[4]": {"tested_on": "Zymoseptoria tritici", "experiment": "Antifungal activity against azoxystrobin-resistant Zymoseptoria tritici T0345 carrying cytochrome-b A143 allele assessed as fungal colony perpendicular diameter changes after 10 days at 18 degC by spotting on PDA medium assay", "details": "T0345, 240 h"}, "[5]": {"tested_on": "Zymoseptoria tritici", "experiment": "Antifungal activity against azoxystrobin-resistant Zymoseptoria tritici T0290 carrying cytochrome-b A143 allele assessed as fungal colony perpendicular diameter changes after 10 days at 18 degC by spotting on PDA medium assay", "details": "T0290, 240 h"}, "[6]": {"tested_on": "Zymoseptoria tritici", "experiment": "Antifungal activity against azoxystrobin-sensitive Zymoseptoria tritici T0148 carrying cytochrome-b G143 allele assessed as fungal colony perpendicular diameter changes after 10 days at 18 degC by spotting on PDA medium assay", "details": "T0148, 240 h"}, "[7]": {"tested_on": "Zymoseptoria tritici", "experiment": "Antifungal activity against azoxystrobin-sensitive Zymoseptoria tritici T0209 carrying cytochrome-b G143 allele assessed as fungal colony perpendicular diameter changes after 10 days at 18 degC by spotting on PDA medium assay", "details": "T0209, 240 h"}, "[8]": {"tested_on": "Zymoseptoria tritici", "experiment": "Antifungal activity against azoxystrobin-resistant Zymoseptoria tritici T0485 carrying cytochrome-b A143 allele assessed as fungal colony perpendicular diameter changes after 10 days at 18 degC by spotting on PDA medium assay", "details": "T0485, 240 h"}, "[9]": {"tested_on": "Zymoseptoria tritici", "experiment": "Antifungal activity against azoxystrobin-resistant Zymoseptoria tritici T0262 carrying cytochrome-b A143 allele assessed as inhibition of spore germination after 2 days at 18 degC by spotting on PDA medium assay", "details": "T0262, 48 h"}, "[10]": {"tested_on": "Zymoseptoria tritici", "experiment": "Antifungal activity against azoxystrobin-sensitive Zymoseptoria tritici IPO323 carrying cytochrome-b G143 allele assessed as fungal colony perpendicular diameter changes after 10 days at 18 degC by spotting on PDA medium assay", "details": "IPO323, 240 h"}, "[11]": {"tested_on": "Zymoseptoria tritici", "experiment": "Antifungal activity against azoxystrobin-sensitive Zymoseptoria tritici T0468 carrying cytochrome-b G143 allele assessed as inhibition of spore germination after 2 days at 18 degC by spotting on PDA medium assay", "details": "T0468, 48 h"}, "[12]": {"tested_on": "Zymoseptoria tritici", "experiment": "Antifungal activity against azoxystrobin-sensitive Zymoseptoria tritici IPO94269 carrying cytochrome-b G143 allele assessed as fungal growth inhibition after 6 days at 20 degC by microplate without alamar blue assay", "details": "IPO94269, 144 h"}, "[13]": {"tested_on": "Zymoseptoria tritici", "experiment": "Antifungal activity against azoxystrobin-sensitive Zymoseptoria tritici T0403 carrying cytochrome-b G143 allele assessed as inhibition of spore germination after 2 days at 18 degC by spotting on PDA medium assay", "details": "T0403, 48 h"}, "[14]": {"tested_on": "Zymoseptoria tritici", "experiment": "Antifungal activity against azoxystrobin-sensitive Zymoseptoria tritici T0464 carrying cytochrome-b G143 allele assessed as fungal growth inhibition after 6 days at 20 degC by microplate without alamar blue assay", "details": "T0464, 144 h"}, "[15]": {"tested_on": "Zymoseptoria tritici", "experiment": "Antifungal activity against azoxystrobin-sensitive Zymoseptoria tritici T021 carrying cytochrome-b G143 allele assessed as inhibition of spore germination after 2 days at 18 degC by spotting on PDA medium assay", "details": "T021, 48 h"}, "[16]": {"tested_on": "Zymoseptoria tritici", "experiment": "Antifungal activity against azoxystrobin-sensitive Zymoseptoria tritici T0214 carrying cytochrome-b G143 allele assessed as fungal colony perpendicular diameter changes after 10 days at 18 degC by spotting on PDA medium assay", "details": "T0214, 240 h"}, "[17]": {"tested_on": "Zymoseptoria tritici", "experiment": "Antifungal activity against azoxystrobin-sensitive Zymoseptoria tritici T0214 carrying cytochrome-b G143 allele assessed as fungal growth inhibition after 6 days at 20 degC by microplate without alamar blue assay", "details": "T0214, 144 h"}, "[18]": {"tested_on": "Zymoseptoria tritici", "experiment": "Antifungal activity against azoxystrobin-sensitive Zymoseptoria tritici T083 carrying cytochrome-b G143 allele assessed as fungal growth inhibition after 6 days at 20 degC by microplate without alamar blue assay", "details": "T083, 144 h"}, "[19]": {"tested_on": "Zymoseptoria tritici", "experiment": "Antifungal activity against azoxystrobin-sensitive Zymoseptoria tritici T0471 carrying cytochrome-b G143 allele assessed as fungal growth inhibition after 6 days at 20 degC by microplate without alamar blue assay", "details": "T0471, 144 h"}, "[20]": {"tested_on": "Zymoseptoria tritici", "experiment": "Antifungal activity against azoxystrobin-resistant Zymoseptoria tritici T0414 carrying cytochrome-b A143 allele assessed as fungal colony perpendicular diameter changes after 10 days at 18 degC by spotting on PDA medium assay", "details": "T0414, 240 h"}, "[21]": {"tested_on": "Zymoseptoria tritici", "experiment": "Antifungal activity against azoxystrobin-resistant Zymoseptoria tritici T0345 carrying cytochrome-b A143 allele assessed as fungal growth inhibition after 6 days at 20 degC by microplate without alamar blue assay", "details": "T0345, 144 h"}, "[22]": {"tested_on": "Zymoseptoria tritici", "experiment": "Antifungal activity against azoxystrobin-resistant Zymoseptoria tritici T049 carrying cytochrome-b A143 allele assessed as fungal colony perpendicular diameter changes after 10 days at 18 degC by spotting on PDA medium assay", "details": "T049, 240 h"}, "[23]": {"tested_on": "Zymoseptoria tritici", "experiment": "Antifungal activity against azoxystrobin-sensitive Zymoseptoria tritici T0211 carrying cytochrome-b G143 allele assessed as fungal growth inhibition after 6 days at 20 degC by microplate without alamar blue assay", "details": "T0211, 144 h"}, "[24]": {"tested_on": "Zymoseptoria tritici", "experiment": "Antifungal activity against azoxystrobin-resistant Zymoseptoria tritici T0451 carrying cytochrome-b A143 allele assessed as fungal growth inhibition after 6 days at 20 degC by microplate without alamar blue assay", "details": "T0451, 144 h"}, "[25]": {"tested_on": "Zymoseptoria tritici", "experiment": "Antifungal activity against azoxystrobin-resistant Zymoseptoria tritici T0290 carrying cytochrome-b A143 allele assessed as inhibition of spore germination after 2 days at 18 degC by spotting on PDA medium assay", "details": "T0290, 48 h"}, "[26]": {"tested_on": "Zymoseptoria tritici", "experiment": "Antifungal activity against azoxystrobin-resistant Zymoseptoria tritici T055 carrying cytochrome-b A143 allele assessed as inhibition of spore germination after 2 days at 18 degC by spotting on PDA medium assay", "details": "T055, 48 h"}, "[27]": {"tested_on": "Zymoseptoria tritici", "experiment": "Antifungal activity against azoxystrobin-sensitive Zymoseptoria tritici T0384 carrying cytochrome-b G143 allele assessed as inhibition of spore germination after 2 days at 18 degC by spotting on PDA medium assay", "details": "T0384, 48 h"}, "[28]": {"tested_on": "Zymoseptoria tritici", "experiment": "Antifungal activity against azoxystrobin-sensitive Zymoseptoria tritici T0466 carrying cytochrome-b G143 allele assessed as inhibition of spore germination after 2 days at 18 degC by spotting on PDA medium assay", "details": "T0466, 48 h"}, "[29]": {"tested_on": "Zymoseptoria tritici", "experiment": "Antifungal activity against azoxystrobin-sensitive Zymoseptoria tritici T0403 carrying cytochrome-b G143 allele assessed as fungal growth inhibition after 6 days at 20 degC by microplate without alamar blue assay", "details": "T0403, 144 h"}, "[30]": {"tested_on": "Zymoseptoria tritici", "experiment": "Antifungal activity against azoxystrobin-sensitive Zymoseptoria tritici T0473 carrying cytochrome-b G143 allele assessed as inhibition of spore germination after 2 days at 18 degC by spotting on PDA medium assay", "details": "T0473, 48 h"}}, "data": [{"smiles": "CO/C=C(/C(=O)OC)c1ccccc1Oc1cc(Oc2ccccc2C#N)ncn1", "note": "[AZOXYSTROBIN]", "values": [{"measurement": "IC50", "setting": "[1]", "result": 0.09, "unit": "µg/mL"}, {"measurement": "IC50", "setting": "[2]", "result": 0.01, "unit": "µg/mL"}, {"measurement": "IC50", "setting": "[3]", "result": 0.06, "unit": "µg/mL"}, {"measurement": "IC50", "setting": "[4]", "result": "> 100", "unit": "µg/mL"}, {"measurement": "IC50", "setting": "[5]", "result": 11.2, "unit": "µg/mL"}, {"measurement": "IC50", "setting": "[6]", "result": 0.06, "unit": "µg/mL"}, {"measurement": "IC50", "setting": "[7]", "result": 0.14, "unit": "µg/mL"}, {"measurement": "IC50", "setting": "[8]", "result": 10.6, "unit": "µg/mL"}, {"measurement": "IC50", "setting": "[9]", "result": "> 100", "unit": "µg/mL"}, {"measurement": "IC50", "setting": "[10]", "result": 0.03, "unit": "µg/mL"}, {"measurement": "IC50", "setting": "[11]", "result": 0.25, "unit": "µg/mL"}, {"measurement": "IC50", "setting": "[12]", "result": 0.03, "unit": "µg/mL"}, {"measurement": "IC50", "setting": "[13]", "result": "< 0.01", "unit": "µg/mL"}, {"measurement": "IC50", "setting": "[14]", "result": "< 0.01", "unit": "µg/mL"}, {"measurement": "IC50", "setting": "[15]", "result": 0.21, "unit": "µg/mL"}, {"measurement": "IC50", "setting": "[16]", "result": 0.09, "unit": "µg/mL"}, {"measurement": "IC50", "setting": "[17]", "result": 0.02, "unit": "µg/mL"}, {"measurement": "IC50", "setting": "[18]", "result": 0.5, "unit": "µg/mL"}, {"measurement": "IC50", "setting": "[19]", "result": 0.05, "unit": "µg/mL"}, {"measurement": "IC50", "setting": "[20]", "result": 11.8, "unit": "µg/mL"}, {"measurement": "IC50", "setting": "[21]", "result": "> 100", "unit": "µg/mL"}, {"measurement": "IC50", "setting": "[22]", "result": 19.4, "unit": "µg/mL"}, {"measurement": "IC50", "setting": "[23]", "result": 0.02, "unit": "µg/mL"}, {"measurement": "IC50", "setting": "[24]", "result": "> 100", "unit": "µg/mL"}, {"measurement": "IC50", "setting": "[25]", "result": 20.1, "unit": "µg/mL"}, {"measurement": "IC50", "setting": "[26]", "result": 15.6, "unit": "µg/mL"}, {"measurement": "IC50", "setting": "[27]", "result": 0.76, "unit": "µg/mL"}, {"measurement": "IC50", "setting": "[28]", "result": 0.94, "unit": "µg/mL"}, {"measurement": "IC50", "setting": "[29]", "result": 9.9, "unit": "µg/mL"}, {"measurement": "IC50", "setting": "[30]", "result": 0.05, "unit": "µg/mL"}]}]}
